The results in this text go back to ChEMBL document CHEMBL1137425, “Design, synthesis and evaluation of novel uracil amino acid conjugates for the inhibition of Trypanosoma cruzi dUTPase” (Bioorg Med Chem Lett, 2006).

The structures appear in SMILES notation.

By Ki is commonly meant the dissociation constant of the complex between target and ligand, obtained from inhibition or displacement. Low values mean tighter binding, high ones weaker binding. For orientation: IC50 means the concentration that gives 50% inhibition. A higher IC50 goes with lower potency.

In test [1] the target is T1, Deoxyuridine triphosphatase (Trypanosoma cruzi (strain CL Brener), UniProt Q4DI50).
T1 sequence (Q4DI50 whole entry): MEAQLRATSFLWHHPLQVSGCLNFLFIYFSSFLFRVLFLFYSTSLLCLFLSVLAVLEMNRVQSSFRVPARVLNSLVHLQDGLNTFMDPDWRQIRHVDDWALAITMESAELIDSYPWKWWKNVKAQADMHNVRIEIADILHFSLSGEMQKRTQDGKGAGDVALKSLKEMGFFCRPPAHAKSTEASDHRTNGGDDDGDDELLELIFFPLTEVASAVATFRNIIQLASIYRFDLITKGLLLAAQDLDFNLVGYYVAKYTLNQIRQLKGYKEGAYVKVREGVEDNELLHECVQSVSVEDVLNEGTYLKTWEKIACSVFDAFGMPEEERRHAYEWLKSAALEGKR
Description: Inhibition of Trypanosoma cruzi dUTPase at 1 mM.

Test [2] concerns Trypanosoma cruzi. Description: Antitrypanosomal activity against Trypanosoma cruzi. Type of test: functional, organism-based.
For test [3], the system named is L6. Kind of test: Cytotoxicity against rat L6 cells. Type of test: functional, cell-based.

As for `C[C@H](NC(=O)Cn1ccc(=O)[nH]c1=O)C(=O)N[C@@H](CC(=O)O)C(=O)O`, the Ki in test [1] is > 1000 µM. In addition, the IC50 is > 84 µM in test [2] and > 252 µM in test [3].

On to `C[C@H](NC(=O)Cn1ccc(=O)[nH]c1=O)C(=O)N[C@H](C(=O)O)[C@@H](C)O`, for which the Ki in test [1] was > 1000 µM. Moreover, the IC50 in test [2] was > 87 µM; in test [3], > 262 µM.

Turning to `C[C@H](NC(=O)Cn1ccc(=O)[nH]c1=O)C(=O)N[C@@H](Cc1ccc(O)cc1)C(=O)O`, the Ki in test [1] is > 1000 µM. Besides, the figures for the half-inhibitory concentration (IC50) in test [2] and in test [3] were > 74 µM and 214 µM, respectively.

`COc1cc([C@@H]2c3cc4c(cc3[C@H](O)[C@H]3COC(=O)[C@H]23)OCO4)cc(OC)c1OC` [PODOFILOX]: 0.15 µM corresponded to half-maximal inhibition in test [3] (IC50). This lies in the sub-micromolar range.

`NCCCC[C@H](NC(=O)CNC(=O)Cn1ccc(=O)[nH]c1=O)C(=O)O`: the Ki in test [1] is > 1000 µM. The IC50 in test [2] was > 84 µM; in test [3], > 253 µM.

With `C[C@H](NC(=O)Cn1ccc(=O)[nH]c1=O)C(=O)N[C@@H](CCCCN)C(=O)O`, in test [1], the inhibitory constant (Ki) was > 1000 µM. Besides, the values for the IC50 in test [2] and in test [3] were > 81 µM and > 243 µM, respectively.

Turning to `O=C(Cn1ccc(=O)[nH]c1=O)NCC(=O)N[C@@H](Cc1ccc(O)cc1)C(=O)O`, in test [1], the Ki is > 1000 µM. For the same compound, the IC50 in test [2] was > 76 µM; in test [3] it was > 230 µM.

For the compound `C[C@H](NC(=O)Cn1ccc(=O)[nH]c1=O)C(=O)N[C@@H](CCC(=O)O)C(=O)O`, the Ki in test [1] was > 1000 µM. Besides, the IC50 is > 81 µM in test [2] and 210 µM in test [3].

In the case of `C[C@H](NC(=O)Cn1ccc(=O)[nH]c1=O)C(=O)N[C@@H](CCC(N)=O)C(=O)O`, in test [1], the inhibitory constant (Ki) is > 1000 µM. Also, the IC50 in test [2] is > 81 µM; in test [3], > 243 µM.

In turn, `O=C(Cn1ccnc1[N+](=O)[O-])NCc1ccccc1` [BENZNIDAZOLE] returned an IC50 in test [2] of 1.04 µM. That is a single-digit micromolar value.

In turn, `O=c1ccn([C@H]2C[C@H](O)[C@@H](COP(=O)(O)O)O2)c(=O)[nH]1` [DEOXYURIDINE MONOPHOSPHATE] yielded a Ki in test [1] of 18.4 µM.

Regarding `C[C@@H](O)[C@H](NC(=O)CNC(=O)Cn1ccc(=O)[nH]c1=O)C(=O)O`, the Ki in test [1] was > 1000 µM. Further, the figures for the IC50 in test [2] and in test [3] were > 91 µM and > 274 µM, respectively.

Consider `C[C@H](NC(=O)Cn1ccc(=O)[nH]c1=O)C(=O)NCC(=O)O`, for which, in test [1], the Ki was > 1000 µM. In addition, the results for the IC50 in test [2] and in test [3] were > 100 µM and > 301 µM, respectively.

As to `O=C(O)CNC(=O)Cn1ccc(=O)[nH]c1=O`, in test [1], the Ki was > 1000 µM. Also, the IC50 in test [2] is > 132 µM; in test [3], > 396 µM.
